Laboratory results reported in patent publication US20230364198A1, “C-Peptide as a Therapy for Patients with Diabetes” (University of Cincinnati, priority 2022, published 2023).
“And” between values parts separate entries of the source, which are not always exact repeats. Equal values may be shown once. “Also recorded” adds a separate entry of the source. Read-outs that look alike come from different tables or passages of the source. No end group written: not given here.

Legend:
[1] = tested on: adult mongrel dogs; assay: Hyperinsulinemic euglycemic (Pd1) / hypoglycemic (Pd2) clamp with IV C-peptide or saline coinfusion in dogs; format: in vivo, dog; conditions: for glucagon secretion during euglycemic/hyperinsulinemic conditions (words): Pd1, IV C-peptide with insulin vs IV saline with insulin
Description: Studies were carried out on 18-hour fasted adult mongrel dogs (21 ± 4 kg; mean ± SD; 5 male, 4 female), aged 12.1 ± 0.6 months and acquired from a US Department of Agriculture-approved vendor. The animals were housed in a facility with a 12-hour light/12-hour dark cycle (lights on at 06:00 hours) and fed once daily a standard chow and meat diet (34% protein, 14.5% fat, 46% carbohydrate, and 5.5% fiber based on dry weight) that was weight maintaining.
Two weeks prior to being studied, each dog underwent surgery under general anesthesia to insert sampling catheters in a femoral artery, the hepatic portal vein, and the left common hepatic vein and to place blood flow probes (Transonic Systems) around the hepatic portal vein and hepatic artery. Two experiments were conducted on each animal, with the first being approximately 15 days after surgery and the second approximately 15 days later. Two days before each experiment, blood was drawn to measure leukocyte and hematocrit counts for each animal. […] On the morning of each experiment, the sampling catheters and flow probes were removed from their subcutaneous pockets under local anesthesia (2% lidocaine, Hospira), and the animal was placed in a Pavlov harness. Intravenous catheters were then inserted into a cephalic and saphenous vein to allow peripheral infusions as necessary. The animal was then allowed to rest for 100 minutes, after which basal samples were collected from the artery and portal and hepatic veins between -20 and 0 minutes.
After the 0-minute sample was collected, experimental period 1 (Pd1) began with the infusion of insulin at 1 mU/kg/min into a leg vein (FIG. 1). At the same time, a leg vein infusion of either canine CPEP (10 pmol/kg/min; AnaSpec) or SAL was also started, and dextrose was infused as needed to maintain euglycemia throughout Pd1 (0-120 minutes). Studies were randomized such that 4 of the 9 dogs received the C-peptide on the first study and the other 5 received saline first. At minute 120, the dextrose infusion was reduced, and the plasma glucose level was allowed to fall to approximately 50 mg/dL, where it was clamped (Pd2; 120-240 minutes; FIG. 1). At the end of the first experiment, all infusions were halted with the exception of glucose, which was infused as needed to restore euglycemia. Once that infusion was no longer required, the catheters and flow probes were placed back into subcutaneous pockets under general anesthesia. After the second experiment, animals were euthanized with pentobarbital, the abdomen was opened, and the positions of the catheter tips were verified.
The processing of blood samples has been described previously. Plasma glucose was analyzed using the glucose oxidase method (Analox Instruments). Insulin, glucagon, and C-peptide were measured using commercially available radioimmunoassay (RIA) kits from MilliporeSigma, and cortisol was measured using an RIA protocol developed by the Vanderbilt University Medical Center Hormone Assay & Analytical Services Core using an in-house antibody (gift from W. Nicholson) and 125I-cortisol (MP Biomedicals). Catecholamines were measured using high-performance liquid chromatography, while NEFA (FUJIFILM Medical Systems) and lactate and glycerol concentrations were measured using fluorometric assays.
Hepatic blood flow was measured using ultrasonic flow probes (Transonic Systems). Net hepatic glucose balance (NHGB), hepatic sinusoidal insulin and glucagon levels, and non-hepatic glucose uptake were calculated as described previously, while plasma glucose levels were converted to whole blood values for the calculation of NHGB. Glucagon was measured every 30 minutes during Pd1 and Pd2, and those data are expressed as absolute values and as Δ AUC. […]

[2] = in vivo; cited from earlier work
[3] = dogs; cited from earlier work
[4] = humans; cited from earlier work

EVEDLQVRDVELAGAPGEGGLQPLALEGALQ [C-peptide]
glucagon secretion during euglycemic/hyperinsulinemic conditions (words) [1]: preserved glucagon secretion; also recorded: prevented the expected decline in glucagon secretion; also recorded: preserves basal glucagon secretion | glucagon secretion during euglycemic/hyperinsulinemic conditions (words) ([1]; listed as CPEP): glucagon secretion decreased less | glucagon secretion during hypoglycemic/hyperinsulinemic conditions ([1]; Pd2, IV C-peptide with insulin vs IV saline with insulin): doubled glucagon secretion | reduction in exogenous glucose required to sustain the plasma glucose at 50 mg/dL vs SAL ([1]; final 90 minutes of Pd2): 47% | exogenous glucose infusion rate (GIR) AUC ([1]; final 90 minutes of Pd2, glucose clamped at 50 mg/dL, mean ± SEM): 37 ± 16 mg/kg × 90 minutes | impact on net hepatic uptake of NEFA and glycerol ([1]; hyperinsulinemia of Pd1): no additional impact | impact on lipolysis (NEFA and glycerol levels) ([1]; hypoglycemia, Pd2): no impact on lipolysis | increase in glucagon secretion in the CPEP group compared with SAL ([1]; insulin-induced hypoglycemia (Pd2), IV C-peptide 10 pmol/kg/min with insulin 1 mU/kg/min): 2 fold | epinephrine, norepinephrine and cortisol levels, SAL vs CPEP ([1]; insulin-induced hypoglycemia, Pd2): no significant difference between treatments | increase in net hepatic glucose output (net HGP) vs SAL ([1]; insulin-induced hypoglycemia, final 90 minutes of Pd2): 75% | increase in net hepatic glucose output (net HGP) vs SAL ([1]; insulin-induced hypoglycemia, final 90 minutes of Pd2, listed as CPEP): 75% and 73% | C-peptide extraction by the liver as share of its clearance [2]: approximately 5% | clearance rate of C-peptide [3]: ~ 11.6 mL/kg/min | clearance rate of C-peptide [4]: ~ 4.4 mL/kg/min
